{
  "source": "patent US20140228423A1",
  "about": "“BIOMARKERS AND THERAPY FOR CANCER” (BAYLOR COLLEGE OF MEDICINE, priority 2011, published 2014)",
  "key": {"OVCAR8 cells [1]": {"test_system": "OVCAR8 cells", "test": "Illumina gene expression analysis of YM155-treated versus DMSO-treated OVCAR8 cells", "type": "cell-based, human", "conditions": "OVCAR8, 6 hours", "procedure": "(§1) To characterize the early targets of YM155 in cancer cells, the ovarian cancer cell line OVCAR8 was treated acutely for 6 hours with YM155 (10 nM). Using Illumina gene expression analysis and QPCR followup, YM155-treated cells were compared with DMSO vehicle treated cells. […] DDIT3 (a.k.a., CHOP) is a proapoptotic protein whose induction is a hallmark of ER stress induced apoptosis (Wang et al., 2010). […] HSP72 has strong cytoprotective effect by functioning as a molecular chaperone in cytosolic protein folding, transport, and degradation (Morimoto et al., 1997; Tavaria et al., 1996), and as an inhibitor of cellular apoptosis (Gamido et al., 2003; Samali and Orrenius, 1998). In addition, HSP72 interacts with ER stress sensor protein IRE1a thereby enhancing IREla-XBP1 signaling at the ER and promoting adaptation to ER stress and cell survival (Gupta et al., 2010). HSP72 is normally expressed at low levels, and is induced upon exposure to environmental stress to exert its cytoprotective effect. However, in cancer, HSP72 is constitutively expressed in many cancer cell lines and biopsies, and its expression correlates with poor prognosis (Gabai et al., 2009). HSP72 provides a selective advantage to cancer cells by suppressing default senescence via p53-dependent and p53-independent pathways (Yaglom et al., 2007). Thus, YM155 acutely suppresses HSPA1A and HSPA1B, indicating a novel mechanism which may contribute directly to the anti-cancer effect of YM155."}, "OVCAR8 cells [2]": {"test_system": "OVCAR8 cells", "test": "Cell viability of OVCAR8 cells after 48 hours with drug (dose response)", "type": "cell-based", "conditions": "Homo sapiens, OVCAR-8; 48-hr treatment of OVCAR8 cells", "procedure": "FIG. 10. Drug and miRNA mimic effects on ovarian cancer cell viability (A-C) and proliferation (D). OVCAR8 cancer cells were incubated for 48 hours in the presence of YM155 (A) or everolimus (B) and assayed for cell viability. C. Three independent PTEN/DICER DKO mouse serous carcinoma cell lines were transfected with miRNA control (miR-Ctrl) or miR-34c mimics and assayed for cell viability 48 hours later. D. OVCAR8 cells were infected with lentivirus expressing miR-Ctrl or miR-34c and assayed for cell number. *, P<0.05; **, P<0.005; ***, P<0.0005\nFIG. 17. Dose response curve of YM155 after 48-hr treatment of OVCAR8 cells.\nWell-known as an apoptosis inhibitor, survivin has been identified to contribute to nearly every aspect of cancer from onset to outcome (Altieri, 2008; Martinelli et al., 2006). Nearly all serous, endometrioid, and poorly-differentiated ovarian cancers express surviving (Cohen et al., 2003), the levels of survivin correlate with poor prognostic parameters (Cohen et al., 2003), high levels of survivin are associated with taxol/platinum resistance (Zaffaroni et al., 2002), and women with PTEN-negative/survivin-positive ovarian cancers have the worst prognosis (Sui et al., 2006). […] Based on these findings, the inventors treated mouse serous cancer cell lines and the human serous cancer line OVCAR8 with YM155 or everolimus, an inhibitor of mTOR (FIG. 5A, B). […]"}, "OVCAR8 cells [3]": {"test_system": "OVCAR8 cells", "test": "High-throughput screen of Prestwick Chemical Library with or without YM155", "conditions": "Homo sapiens, OVCAR-8, read-out: Cell viability", "protocol": "High-throughput screen for drugs that synergize with YM155. […] Digitonin (0.8 mg/ml) was used as a positive control for ˜100% cell death. […] The relative synergy for each drug was then calculated by subtracting measured cell survival of combinatorial treatment from the calculated c value.\nTo identify additional small molecules that synergize with YM155, a small library screen was performed."}, "[4]": {"test_system": "ovarian cancer cell lines and a pancreatic cancer cell line", "test": "Cell Titer Glo viability with YM155, parthenolide or both for 48 hours", "conditions": "single agents at levels giving about half inhibition, and their combination"}, "OVCAR8 cells [5]": {"test_system": "OVCAR8 cells", "test": "QPCR follow-up of YM155-treated versus DMSO-treated OVCAR8 cells", "type": "cell-based, human", "conditions": "OVCAR8, 6 hours", "text": "as §1, with “Using” for “To characterize the early targets of YM155 in cancer cells, the ovarian cancer cell line OVCAR8 was treated acutely for 6 hours with YM155 (10 nM). Using”"}},
  "data": [
    {"smiles": "COCCn1c2c([n+](Cc3cnccn3)c1C)C(=O)c1ccccc1C2=O", "note": "[YM155, sepantronium bromide]", "values": [
      {"measurement": "Fold Change YM155 (10 nM)/DMSO (Array): ATF3", "setting": "OVCAR8 cells [1]", "value": 2.2},
      {"measurement": "Fold Change YM155 (10 nM)/DMSO (Array): BIRC5 (Survivin)", "setting": "OVCAR8 cells [1]", "value": "−1.3"},
      {"measurement": "Fold Change YM155 (10 nM)/DMSO (Array): DDIT3", "setting": "OVCAR8 cells [1]", "value": 3.8},
      {"measurement": "Fold Change YM155 (10 nM)/DMSO (Array): DDIT4", "setting": "OVCAR8 cells [1]", "value": 5.6},
      {"measurement": "Fold Change YM155 (10 nM)/DMSO (Array): HERPUD1", "setting": "OVCAR8 cells [1]", "value": 2.2},
      {"measurement": "Fold Change YM155 (10 nM)/DMSO (Array): HSPA1A", "setting": "OVCAR8 cells [1]", "value": "−2.6"},
      {"measurement": "Fold Change YM155 (10 nM)/DMSO (Array): HSPA1B", "setting": "OVCAR8 cells [1]", "value": "−2.6"},
      {"measurement": "Fold Change YM155 (10 nM)/DMSO (Array): TRIB3", "setting": "OVCAR8 cells [1]", "value": 2.6},
      {"measurement": "GI50", "setting": "OVCAR8 cells [2]", "value": 4.6, "unit": "nM"},
      {"measurement": "viability at 0.003 µM", "setting": "OVCAR8 cells [3]", "value": 64.3, "unit": "%"},
      {"measurement": "inhibition of cancer cell viability", "setting": "[4]", "value": "~50", "unit": "%"},
      {"measurement": "Fold Change YM155 (30 nM)/DMSO (QPCR): ATF3", "setting": "OVCAR8 cells [5]", "value": 11.1},
      {"measurement": "Fold Change YM155 (30 nM)/DMSO (QPCR): BIRC5 (Survivin)", "setting": "OVCAR8 cells [5]", "value": "−1.1"},
      {"measurement": "Fold Change YM155 (30 nM)/DMSO (QPCR): DDIT3", "setting": "OVCAR8 cells [5]", "value": 3.6},
      {"measurement": "Fold Change YM155 (30 nM)/DMSO (QPCR): DDIT4", "setting": "OVCAR8 cells [5]", "value": 10.6},
      {"measurement": "Fold Change YM155 (30 nM)/DMSO (QPCR): HERPUD1", "setting": "OVCAR8 cells [5]", "value": 3.1},
      {"measurement": "Fold Change YM155 (30 nM)/DMSO (QPCR): HSPA1A", "setting": "OVCAR8 cells [5]", "value": "−7.5"},
      {"measurement": "Fold Change YM155 (30 nM)/DMSO (QPCR): HSPA1B", "setting": "OVCAR8 cells [5]", "value": "−4.4"},
      {"measurement": "Fold Change YM155 (30 nM)/DMSO (QPCR): TRIB3", "setting": "OVCAR8 cells [5]", "value": 2.0}
    ]}
  ]
}
